In patent US20250353855A1, “HETEROCYCLIC AND HETEROARYL COMPOUNDS FOR TREATING HUNTINGTON'S DISEASE” (PTC THERAPEUTICS, INC., priority 2022, published 2025) one finds IC50 data, which are given here for 11 molecules.

Where only a bound is given, the exact number is not on record here.

The first test relates to Endogenous Huntingtin Protein. In words: Endogenous Huntingtin Protein Assay (ELISA-based MSD electrochemiluminescence). Type of test: cell-based. Particulars: MSD plates coated with MW1 (expanded polyglutamine) or MAB2166 capture antibody; lysates. An outline of the steps:
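Electrochemiluminescence sandwich ELISA for endogenous huntingtin: capture with MW1 (expanded polyglutamine) or MAB2166 antibody at 1 μg/mL, samples incubated overnight at 4° C. Detection with rabbit monoclonal #5656S then goat anti-rabbit SULFO-TAG antibody (each 0.25 μg/mL, 1 h room temperature), read on MSD imager.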
Broadly, the IC50 is the concentration that gives 50% inhibition. In turn, `CSc1nc2cc(O)c(-c3cc4c(nn3)N([C@H]3CC(C)(C)NC(C)(C)[C@H]3F)CC4)cc2s1` [Cpd 98, 6-{7-[(3S,4S)-3-fluoro-2,2,6,6-tetramethylpiperidin-4-yl]-6,7-dihydro-5H-pyrrolo[2,3-c]pyridazin-3-yl}-2-(methylsulfanyl)-1,3-benzothiazol-5-ol] returned an IC50 of less than 100 nM.

The same test, now with this note: MSD plates coated with MW1 (expanded polyglutamine) or MAB2166 capture antibody; lysates; read-out: IC50.
For the molecule `Cc1ncc2cc(O)c(-c3cc4c(nn3)N([C@H]3CC(C)(C)NC(C)(C)[C@H]3F)CC4)cc2n1` [Cpd 87, 7-{7-[(3S,4S)-3-fluoro-2,2,6,6-tetramethylpiperidin-4-yl]-6,7-dihydro-5H-pyrrolo[2,3-c]pyridazin-3-yl}-2-methylquinazolin-6-ol], the half-maximal inhibitory concentration (IC50) is less than 100 nM.
For `Cn1nc2cc(O)c(-c3cc4c(nn3)N([C@H]3CC(C)(C)NC(C)(C)[C@H]3F)CC4)cc2n1` [Cpd 88, 6-{7-[(3S,4S)-3-fluoro-2,2,6,6-tetramethylpiperidin-4-yl]-6,7-dihydro-5H-pyrrolo[2,3-c]pyridazin-3-yl}-2-methyl-2H-benzotriazol-5-ol], the IC50 was less than 100 nM.
With `Cn1cc2cc(O)c(-c3cc4c(nn3)N([C@H]3CC(C)(C)NC(C)(C)[C@H]3F)CC4)cc2n1` [Cpd 89, 6-{7-[(3S,4S)-3-fluoro-2,2,6,6-tetramethylpiperidin-4-yl]-6,7-dihydro-5H-pyrrolo[2,3-c]pyridazin-3-yl}-2-methyl-2H-indazol-5-ol], the IC50 is less than 100 nM.
In the case of `CC1(C)C[C@H](N2CCc3cc(-c4cc5ncc(F)cc5cc4O)nnc32)[C@H](F)C(C)(C)N1` [Cpd 90, 3-fluoro-7-{7-[(3S,4S)-3-fluoro-2,2,6,6-tetramethylpiperidin-4-yl]-6,7-dihydro-5H-pyrrolo[2,3-c]pyridazin-3-yl}quinolin-6-ol], the IC50 is less than 100 nM.
Consider `Cn1nnc2cc(O)c(-c3cc4c(nn3)N([C@H]3CC(C)(C)NC(C)(C)[C@H]3F)CC4)cc21` [Cpd 92, 6-{7-[(3S,4S)-3-fluoro-2,2,6,6-tetramethylpiperidin-4-yl]-6,7-dihydro-5H-pyrrolo[2,3-c]pyridazin-3-yl}-1-methyl-1H-benzotriazol-5-ol], for which the IC50 is less than 100 nM.
On to `CC1(C)C[C@H](N2CCc3cc(-c4cc5cc(F)cnc5cc4O)nnc32)[C@H](F)C(C)(C)N1` [Cpd 93, 3-fluoro-6-{7-[(3S,4S)-3-fluoro-2,2,6,6-tetramethylpiperidin-4-yl]-6,7-dihydro-5H-pyrrolo[2,3-c]pyridazin-3-yl}quinolin-7-ol], for which the concentration for half-maximal inhibition (IC50) was less than 100 nM.
The same measure, in the same setting: then `CC1(C)C[C@H](n2ccc3cc(-c4cc5cc(F)cnc5cc4O)nnc32)[C@H](F)C(C)(C)N1` [Cpd 94, 3-fluoro-6-{7-[(3S,4S)-3-fluoro-2,2,6,6-tetramethylpiperidin-4-yl]-7H-pyrrolo[2,3-c]pyridazin-3-yl}quinolin-7-ol], with less than 100 nM; and `Cc1nc2cc(O)c(-c3cc4c(nn3)N([C@@H]3CC(C)(C)NC5(CC5)C3)CC4)cc2o1` [Cpd 95, 6-{7-[(7R)-5,5-dimethyl-4-azaspiro[2.5]octan-7-yl]-6,7-dihydro-5H-pyrrolo[2,3-c]pyridazin-3-yl}-2-methyl-1,3-benzoxazol-5-ol], with less than 100 nM.
As to `COc1nc2cc(O)c(-c3cc4ccn([C@H]5CC(C)(C)NC(C)(C)[C@H]5F)c4nn3)cc2s1` [Cpd 96, 6-{7-[(3S,4S)-3-fluoro-2,2,6,6-tetramethylpiperidin-4-yl]-7H-pyrrolo[2,3-c]pyridazin-3-yl}-2-methoxy-1,3-benzothiazol-5-ol], the IC50 was less than 100 nM.
Regarding `COc1nc2cc(O)c(-c3cc4c(nn3)N([C@H]3CC(C)(C)NC(C)(C)[C@H]3F)CC4)cc2s1` [Cpd 97, 6-{7-[(3S,4S)-3-fluoro-2,2,6,6-tetramethylpiperidin-4-yl]-6,7-dihydro-5H-pyrrolo[2,3-c]pyridazin-3-yl}-2-methoxy-1,3-benzothiazol-5-ol], the IC50 was less than 100 nM.
